According to article PMC6099623, “Novel Thiazolidinone/Thiazolo[3,2-a]Benzimidazolone-Isatin Conjugates as Apoptotic Anti-proliferative Agents Towards Breast Cancer: One-Pot Synthesis and In Vitro Biological Evaluation” (Molecules : A Journal of Synthetic Chemistry and Natural …, 2018):
Read-outs that look alike come from different tables or passages of the source.

Columns and labels:
[1] = test system: MCF-7 breast cancer cell line; set-up: method as in PMID 28802125; conditions: earlier work of the authors; cited from earlier work
[2] = test system: lung fibroblast cell line (WI-38); test: Crystal violet cytotoxicity towards nontumorigenic WI-38; assay type: cell-based; conditions: Homo sapiens, nontumorigenic cells, mean ± S.D. of three separate experiments
Experimental: (§1) The cytotoxic activity of the active conjugates towards MDA-MB-231 cells (4c–e, 4g, 4l–n and 7a–d) was examined against nontumorigenic human lung fibroblast cell line (WI-38) and human breast epithelial cell line (MCF-10A) to investigate the potential safety of the newly prepared conjugates towards the normal cells. […] The results were expressed as IC50 values, and selectivity index was calculated (Table 2).
(§2) The cytotoxic activity of the active conjugates towards nontumorigenic human lung fibroblast cell line (WI-38) and human breast epithelial cell line (MCF-10A) was determined using Crystal violet (CV) cell cytotoxicity assay according to the previously published procedures.

[3] = test system: MDA-MB-231 breast cancer cell line; test: Crystal Violet antiproliferative assay, MDA-MB-231; assay type: cell-based; conditions: Homo sapiens, MDA-MB-231, 48 h, 48 h of incubation, mean ± S.D. of three separate experiments
Experimental: (§3) The in vitro antiproliferative activity of the newly synthesized conjugates 4a–n and 7a–d was evaluated against breast cancer MDA-MB-231 and MCF-7 cell lines, following the Crystal Violet (CV) cell cytotoxicity assay. Doxorubicin was included in this assay as a positive control, and Sunitinib was used as a reference drug.
(§4) Breast cancer cell lines MDA-MB-231 and MCF-7 cells were obtained from VACSERA Tissue Culture Unit. The cells were propagated in DMEM supplemented with 10% heat-inactivated fetal bovine serum, 1% L-glutamine (2.5 mM), HEPES (4-(2-hydroxyethyl)-1-piperazineethanesulfonic acid) buffer (10 mM) and 50 µg/mL gentamycin. All cells were maintained at 37 °C in a humidified atmosphere with 5% CO2 and were sub-cultured two times a week. Cytotoxicity was determined following the Crystal Violet (CV) cell cytotoxicity assay.
(§5) Test samples were dissolved in DMSO and kept at a stock concentration of 100 mM. Exponentially growing cells were collected using 0.25% Trypsin-EDTA and seeding was done at a density of 3000 cells/well in 96-well plates. After 24 h, the monolayer cultured cells were washed with sterile phosphate buffered saline (0.01 M pH 7.2) and simultaneously the cells were treated with […] from 10 different dilutions of the test compounds as well as Doxorubicin was […] Control wells were exposed to the same concentration of vehicle, DMSO (1%) used in the highest concentration of the test samples. Cell viability was >99% compared to untreated cells. The number of the surviving cells was determined by staining the cells with crystal violet followed by cell lysing using 33% glacial acetic acid. The absorbance was measured at 490 nm using ELISA reader (Thermo Fisher Scientific, Waltham, MA, USA) after gentle shaking. The absorbance values from untreated cells were considered as 100% proliferation.
(§6) The number of viable cells was determined using ELISA reader as previously mentioned and the percentage of viability was calculated as […] where ODt is the mean optical density of wells treated with the test sample and ODc is the mean optical density of untreated cells. The 50% inhibitory concentration (IC50) was estimated from graphic plots of the dose response curve for each conc. using GraphPad Prism software, Version 5 (San Diego, CA, USA). The data presented are the mean of at least three separate experiments.

[4] = test system: Bcl-2; test: ELISA immunoassay of Bcl-2 level in MDA-MB-231 cells; assay type: cell-based; conditions: MDA-MB-231 cells treated at IC50 concentration; for Bcl-2 / Bcl-2, number of folds of control: 48 h
Experimental: (§7) In our study, we investigated the effect of conjugates 4m and 7b towards the level of the antiapoptotic Bcl2 and the level of the pro-apoptotic Bax, (Table 3, Figure 2).
(§8) The levels of the apoptotic markers (Bax, caspase-3) as well as the antiapoptotic marker Bcl-2 were determined using ELISA colorimetric kits per the manufacturer’s instructions, as reported earlier. MDA-MB-231 cells were cultured as a monolayer in T-25 flasks and were seeded to attain 30% confluency prior to treatment. […] At the end of treatment, cells were collected via trypsinization and centrifuged at 10,000 rpm. The pellet was then rinsed with PBS and lysed in RIPA lysis buffer at 4 °C for 45 min, then centrifuged at 14,000 rpm for 20 min to remove the cellular debris. Lysates were then collected and stored at −80 °C for later protein determination using Pierce BCA Protein Assay Kit (Pierce Biotechnology, Rockford, IL, USA) according to manufacturer’s recommendations.
(§9) The cell lysate was diluted 10 times, and 100 μL ([…]) was added to the wells of […] that were pre-coated with primary antibodies specific to Bax, Bcl-2 and caspase-3 proteins, respectively. A secondary biotin-linked antibody specific to the protein captured by the primary antibody was further added to bind the captured protein, forming a “sandwich” of specific antibodies around the desired protein in the cell lysate. The streptavidin-HRP complex was then used to bind the biotin-linked secondary antibody through its streptavidin portion. The HRP domain reacted with the added TMB substrate to form a colored product that measured at 450 nm by a plate reader (ChroMate-4300, Orlando, FL, USA) after the reaction was terminated via the addition of stop solution.

[5] = test system: Bax; test: ELISA immunoassay of Bax level in MDA-MB-231 cells; assay type: cell-based; conditions: MDA-MB-231 cells treated at IC50 concentration; for Bax / Bax, number of folds of control: 48 h; for Bax/Bcl-2: control 3.9
Experimental: as §7, §8, §9

[6] = test system: breast epithelial cell line (MCF-10A); test: Crystal violet cytotoxicity towards nontumorigenic MCF-10A; assay type: cell-based, human; conditions: for IC50: Homo sapiens, MCF-10A, nontumorigenic cells, mean ± S.D. of three separate experiments; for Selectivity Index (MCF-10A/MDA-MB-231): ratio of IC50 MCF-10A to IC50 MDA-MB-231
Experimental: as §1, §2

[7] = test system: caspase-3; test: ELISA immunoassay of active caspase-3 level in MDA-MB-231 cells; assay type: cell-based; conditions: MDA-MB-231 cells treated at IC50 concentration, 48 h
Description: The down-regulation of the antiapoptotic Bcl-2 leads to an increase in the levels of free pro-apoptotic Bax which in turn accumulates at the inner mitochondrial membrane forming channels, altering membrane permeability. Accordingly, the apoptotic factors can leak into the cytoplasm resulting in the caspases cascade activation. As a key executioner protease, caspase-3 is activated by upstream initiator caspases as caspase-9 [48]. Thence, the elevated Bax/Bcl-2 ratios obtained herein triggered the examination of the protein expression levels of active caspases-3. Treatment of TNBC MDA-MB-231 cells with conjugates 4m and 7b led to a significant increase in the active caspase-3 levels by 6.4 and 4.9 folds, respectively, compared to control (Table 3, Figure 3).
as §8, §9

[8] = test system: MCF-7 breast cancer cell line; test: Crystal Violet antiproliferative assay, MCF-7; assay type: cell-based; conditions: for IC50: Homo sapiens, MCF7, 48 h, Crystal Violet assay, 48 h of incubation, mean ± S.D. of three separate experiments
Experimental: as §3, §4, §5, §6

[9] = test system: MDA-MB-231 cells; test: Cell cycle analysis by DNA flow cytometry; assay type: cell-based; conditions: 24 h at IC50 concentration
Experimental: The effect of hybrid 4m on cell cycle progression was evaluated in TNBC MDA-MB-231 cells after 24 h of treatment (Figure 4). Such impact was illustrated by DNA flow cytometric assay where MDA-MB-231 cells were treated with conjugate 4m at its IC50 concentration.
Subsequently, the treated cells were collected by centrifugation, fixed in ice-cold 70% (v/v) ethanol, washed with PBS, re-suspended with 100 μg/mL RNase, stained with 40 μg/mL PI, and analyzed by flow cytometry using FACS Calibur (Becton Dickinson, BD, Franklin Lakes, NJ, USA). The cell cycle distributions were calculated using CellQuest software 5.1 (Becton Dickinson).

[10] = test system: MDA-MB-231 cells; test: Annexin V-FITC/PI apoptosis assay; assay type: cell-based; conditions: MDA-MB-231 at IC50 concentration
Experimental: Annexin V-based flow cytometry assay elucidates either that cell death is achieved via programmed apoptosis or nonspecific necrosis.
Phosphatidylserine externalization was assayed using Annexin V-FITC/PI apoptosis detection kit (BD Biosciences, San Jose, CA, USA) according to the manufacturer’s instructions, as reported earlier. MDA-MB-231 cells were cultured to a monolayer then treated with conjugate 4m at its IC50 concentration as described earlier. Cells were then harvested via trypsinization, and rinsed twice in PBS followed by binding buffer. Moreover, cells were re-suspended in 100 μL of binding buffer with the addition of 1 μL of FITC-Annexin V (Becton Dickinson BD Pharmingen^TM, Heidelberg, Germany) followed by an incubation period of 30 min at 4 °C. Cells were then rinsed in binding buffer and resuspended in 150 μL of binding buffer with the addition of 1 μL of DAPI (1 μg/μL in PBS) (Invitrogen, Life Technologies, Darmstadt, Germany). Cells were then analyzed using the flow cytometer BD FACS Canto II (BD Biosciences, San Jose, CA, USA) and the results were interpreted with FlowJo7.6.4 software (Tree Star, Ashland, OR, USA).

IC50 [3] [µM] | IC50 [8] [µM] | SMILES | IC50 [2] [µM] | Downregulation of Bcl-2 expression level compared to control [4] [%] | Bcl-2 [4] | Bcl-2, number of folds of control [4] | Boost of Bax/Bcl-2 ratio compared to control [5] [folds] | Bax [5] | Bax, number of folds of control [5] | Bax/Bcl-2 [5] | IC50 [6] [µM] | Selectivity Index (MCF-10A/MDA-MB-231) [6] | Caspase-3 [7] | Caspase-3, number of folds of control [7] | also measured
 |  | NS(=O)(=O)c1ccc(/N=C2\NC(=O)/C(=C3/C(=O)Nc4ccc(Cl)cc43)S2)cc1 [compound VI] |  |  |  |  |  |  |  |  |  |  |  |  | IC50 [1]: 3.96 ± 0.21 µM
13.2 ± 1.7 | 21.7 ± 1.5 | COc1ccc2c(c1)C(=c1sc3nc4ccccc4n3c1=O)C(=O)N2 [Compound 7b, 2-(5-Methoxy-2-oxoindolin-3-ylidene)benzo[4,5]imidazo[2,1-b]thiazol-3(2H)-one] | 121 ± 6.9 | 55.1 | 2.8 ± 0.1 ng/mg of Total Protein | 0.45 folds of control | 16 | 180.0 ± 7.3 pg/mg of Total Protein | 7.3 folds of control | 64.1 | 184 ± 8 | 13.9 | 0.15 ± 0.01 ng/mg of Total Protein | 4.9 folds of control | melting point: > 300 °C
7.6 ± 0.5 | 8.4 ± 0.5 | Cc1ccc(N=C2SC(=C3C(=O)Nc4ccc(C)cc43)C(=O)N2c2ccc(C)cc2)cc1 [Compound 4m, 5-(5-Methyl-2-oxoindolin-3-ylidene)-3-(p-tolyl)-2-(p-tolylimino)thiazolidin-4-one] | 49.1 ± 1.9 | 66.6 | 2.1 ± 0.1 ng/mg of Total Protein | 0.33 folds of control | 33 | 274.8 ± 13.5 pg/mg of Total Protein | 11.1 folds of control | 130.5 | 73.1 ± 2.7 | 9.6 | 0.19 ± 0.01 ng/mg of Total Protein | 6.4 folds of control | Arrest in G2-M phase compared to control [9]: 2.5 folds; Rise in percentage of cells at Sub-G1 compared to control [9]: 4 folds; Increase of annexin V-FITC-positive apoptotic cells compared with control [10]: about 6 folds; Percent of annexin V-FITC-positive apoptotic cells, early and late (UR + LR) ([10]; control 1.92%): 11.43%; Decreased activity against MCF-7 relative to doxorubicin ([8]; IC50 ratio to doxorubicin): 2.2 fold
